According to the supplement of paper PMC5844555:

Columns and labels:
Experiment in all cases: 3' UTR reporter interaction score (median-centred robust z-score of log2 firefly/Renilla activity); higher = less repression of the 3' UTR reporter
Details in all cases: HEK293T; 48 h
BRCA2 = test system: BRCA2
How it was run: (§1)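 A firefly luc2P reporter carrying the gene's 3' UTR (100 ng), Renilla pRL-TK control (20 ng) and miRNA mimic (2.5 pmol) were co-transfected with DharmaFECT Duo into HEK293T cells plated at 10,000/well in 96-well plates. Luciferase activities were read 48 h post-transfection. The interaction score is the log firefly/Renilla ratio as a per-plate robust z-score from median and median absolute deviation, median-centred per miRNA, and more negative indicates interaction. Values are averages of at least two independent screens.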

EZH2 = test system: EZH2
How it was run: as §1

FBXW7 = test system: FBXW7
How it was run: as §1

HRAS = test system: HRAS
How it was run: as §1

MYB = test system: MYB
How it was run: as §1

MYCN = test system: MYCN
How it was run: as §1

MYC = test system: MYC
How it was run: as §1

MYT1L = test system: MYT1L
How it was run: as §1

NOTCH1 = test system: NOTCH1
How it was run: as §1

PHF6 = test system: PHF6
How it was run: as §1

PHOX2B = test system: PHOX2B
How it was run: as §1

RB1 = test system: RB1
How it was run: as §1

TP53 = test system: TP53
How it was run: as §1

ZEB2 = test system: ZEB2
How it was run: as §1

Sequence	3' UTR reporter interaction score (BRCA2)	3' UTR reporter interaction score (EZH2)	3' UTR reporter interaction score (FBXW7)	3' UTR reporter interaction score (HRAS)	3' UTR reporter interaction score (MYB)	3' UTR reporter interaction score (MYCN)	3' UTR reporter interaction score (MYC)	3' UTR reporter interaction score (MYT1L)	3' UTR reporter interaction score (NOTCH1)	3' UTR reporter interaction score (PHF6)	3' UTR reporter interaction score (PHOX2B)	3' UTR reporter interaction score (RB1)	3' UTR reporter interaction score (TP53)	3' UTR reporter interaction score (ZEB2)
CUCUAGAGGGAAGCACUUUCUCU	-0.0386	-0.139	-2.17	1.4	2.18	-0.181	0.549	0.381	0.176	-0.193	-2.05	-0.223	-0.432	-0.685
CUCUAGAGGGAAGCGCUUUCUGUU	-0.378	-0.269	-0.944	-0.0223	1.71	-0.278	0.337	0.721	1.16	-0.0745	-1.2	-0.121	0.361	0.37
CUCUUGAGGGAAGCACUUUCUGUU	0.199	1.02	1.21	-0.664	1.52	0.894	-0.277	0.407	-0.119	-2.75	-0.0184	-0.331	0.305	-0.69
CUGAAGUGAUGUGUAACUGAUCAG	-1.33	0.809	-0.0116	0.253	-1.34	-0.441	0.252	1.21	2.11	-0.442	-1.07	-0.534	0.516	-0.764
CUGACCUAUGAAUUGACAGCC	-0.668	-0.124	-0.577	0.344	0.682	1.31	1.2	0.445	0.282	-3.78	-1.28	-2.94	0.334	-6.22
CUGCAAAGGGAAGCCCUUUCU	-0.0732	-3.8	-3.15	0.112	1.16	1.29	1.15	0.529	-1.22	-2.67	-0.887	1.27	0.104	-4.11
CUGGACUUAGGGUCAGAAGGCC	-1.05	-0.857	-0.885	0.067	1.31	0.447	-0.781	0.968	-1.28	0.77	1.18	1.37	-0.836	2.31
CUGGACUUGGAGUCAGAAGGCC	-0.913	-1.01	-1.21	0.243	1.36	0.91	-0.585	1.12	-1.42	0.484	0.64	-0.493	-0.688	1.96
CUGGAUGGCUCCUCCAUGUCU	-1.72	-1.36	0.945	-0.334	0.532	1.88	-0.501	-0.148	0.182	1.87	1.08	-2.12	0.127	0.281
CUGGCCCUCUCUGCCCUUCCGU	0.17	0.421	-0.17	1.31	0.857	1.01	1.14	0.19	-0.752	-2.64	-0.839	-0.329	-0.27	0.72
CUGGGAUCUCCGGGGUCUUGGUU	-0.371	-0.155	0.0113	-0.593	-0.958	0.56	0.773	-0.147	-0.177	-0.552	0.484	2.57	-1.29	-0.251
CUGUGCGUGUGACAGCGGCUGA	-0.102	-0.315	0.121	-0.943	1.02	0.24	-0.0999	-2.16	0.0936	0.722	-2.14	1.29	0.618	2.18
CUUCUUGUGCUCUAGGAUUGU	-1.63	0.0594	-1.11	0.138	0.218	0.82	0.759	-0.427	-0.719	-0.418	-1.49	0.605	-0.0486	0.0232
CUUGGUUCAGGGAGGGUCCCCA	-0.342	0.379	-2.49	-0.543	0.238	0.421	-0.0193	0.48	-0.824	0.112	0.231	-0.223	-0.22	1.64
CUUUCAGUCGGAUGUUUACAGC	0.0637	-0.714	-0.0926	0.423	0.713	0	-0.326	-0.118	0.359	-0.685	-0.851	0.295	0.358	-0.248
CUUUCAGUCGGAUGUUUGCAGC	-0.362	-0.356	-0.137	0.271	0.557	-0.166	0.164	0.0662	0.454	-0.502	0.68	-0.473	-0.309	0.565
CUUUUUGCGGUCUGGGCUUGC	-0.285	0.547	-2.11	0.493	0.803	0.522	0.829	1.18	-0.155	-1.29	-0.0143	-0.184	-0.0822	-2.61
GAAAACAGCAAUUACCUUUGCA	0.212	0.37	0.0135	-0.7	-1.17	0.734	-0.413	-0.261	-1.34	-0.427	0.0564	0.347	-0.0426	0.263
GAACGCCUGUUCUUGCCAGGUGG	1.57	1.05	-1.79	0.54	0.0781	-0.325	0.431	-0.992	0.125	-1.24	-0.674	0.00732	-0.416	0.419
